In US7625894B2, “Pyrrolo[2,3-d]Pyrimidines as Protein Tyrosine Kinase Inhibitors” (Novartis AG, priority 2004, dated 2009):

Structure (SMILES) | melting point [°C]
CNC(=O)c1ccc(-c2cc3c(NC)ncnc3[nH]2)cc1 [Example 21, N-Methyl-4-(4-methylamino-7H-pyrrolo[2,3-d]pyrimidin-6-yl)-benzamide] | > 300
CCCCOCc1ccc(-c2cc3c(N(C)C)ncnc3[nH]2)cc1 [Example 26, [6-(4-Butoxymethyl-phenyl)-7H-pyrrolo[2,3-d]pyrimidin-4-yl]-dimethyl-amine] | 186 to 188
CCC(O)(CC)c1ccc(-c2cc3c(NCCCN4CCOCC4)ncnc3[nH]2)cc1 [Example 30] | 175 to 177
COCCN(CCOC)c1ncnc2[nH]c(-c3ccc(C(C)(C)O)cc3)cc12 [Example 31, 2-(4-{4-[Bis-(2-methoxy-ethyl)-amino]-7H-pyrrolo[2,3-d]pyrimidin-6-yl}-phenyl)-propan-2-ol] | 165 to 167
CCC(O)(CC)c1ccc(-c2cc3c(N(CCOC)CCOC)ncnc3[nH]2)cc1 [Example 32, 3-(4-{4-[Bis-(2-methoxy-ethyl)-amino]-7H-pyrrolo[2,3-d]pyrimidin-6-yl}-phenyl)-pentan-3-ol] | 83 to 85

Now from value to molecule:

melting point [°C] | Structure (SMILES)
220 to 221 | CCCN(C)c1ncnc2[nH]c(-c3ccc(CN4CCN(C)CC4)cc3)cc12 [Example 1, methyl-{6-[4-(4-methyl-piperazin-1-ylmethyl)phenyl]-7H-pyrrolo[2,3-d]pyrimidin-4-yl}-propylamine]
243 to 245 | CN1CCN(C(=O)c2ccc(-c3cc4c(N5CCN(C)CC5)ncnc4[nH]3)cc2)CC1 [Example 8, (4-Methyl-piperazin-1-yl)-{4-[4-(4-methyl-piperazin-1-yl)-7H-pyrrolo[2,3-d]pyrimidin-6-yl]-phenyl}-methanone]
268 to 270 | CN(C)CCNc1ncnc2[nH]c(-c3ccc(C(=O)N4CCN(C)CC4)cc3)cc12 [Example 22, {4-[4-(2-Dimethylamino-ethylamino)-7H-pyrrolo[2,3-d]pyrimidin-6-yl]-phenyl}-(4-methyl-piperazin-1-yl)-methanone]
